Data taken from the NIST ThermoML archive (doi:10.1016/j.fluid.2016.02.009).
Numbers after ± are expanded uncertainties.

Conditions: Liquid, Vibrating tube method

CCCCCOCCCCC [dipentyl ether]
Conditions	mass density [kg/m3]
283.15 K, 100 kPa	790.99 ± 0.29
283.15 K, 5000 kPa	794.85 ± 0.32
283.15 K, 10000 kPa	798.47 ± 0.35
283.15 K, 15000 kPa	801.9 ± 0.38
283.15 K, 20000 kPa	805.2 ± 0.41
283.15 K, 25000 kPa	808.38 ± 0.43
283.15 K, 30000 kPa	811.47 ± 0.46
283.15 K, 35000 kPa	814.44 ± 0.49
283.15 K, 40000 kPa	817.31 ± 0.52
283.15 K, 45000 kPa	820.12 ± 0.55
283.15 K, 50000 kPa	822.84 ± 0.58
283.15 K, 55000 kPa	825.48 ± 0.61
283.15 K, 60000 kPa	828.06 ± 0.63
283.15 K, 65000 kPa	830.58 ± 0.66
288.15 K, 100 kPa	786.98 ± 0.3
288.15 K, 5000 kPa	790.95 ± 0.32
288.15 K, 10000 kPa	794.65 ± 0.35
288.15 K, 15000 kPa	798.17 ± 0.38
288.15 K, 20000 kPa	801.55 ± 0.41
288.15 K, 25000 kPa	804.81 ± 0.44
288.15 K, 30000 kPa	807.94 ± 0.46
288.15 K, 35000 kPa	810.97 ± 0.49
288.15 K, 40000 kPa	813.93 ± 0.52
288.15 K, 45000 kPa	816.78 ± 0.55
288.15 K, 50000 kPa	819.54 ± 0.58
288.15 K, 55000 kPa	822.24 ± 0.61
288.15 K, 60000 kPa	824.87 ± 0.64
288.15 K, 65000 kPa	827.41 ± 0.67
293.15 K, 100 kPa	782.96 ± 0.3
293.15 K, 5000 kPa	787.04 ± 0.32
293.15 K, 10000 kPa	790.83 ± 0.35
293.15 K, 15000 kPa	794.44 ± 0.38
293.15 K, 20000 kPa	797.91 ± 0.41
293.15 K, 25000 kPa	801.23 ± 0.44
293.15 K, 30000 kPa	804.44 ± 0.47
293.15 K, 35000 kPa	807.54 ± 0.5
293.15 K, 40000 kPa	810.53 ± 0.53
293.15 K, 45000 kPa	813.44 ± 0.56
293.15 K, 50000 kPa	816.26 ± 0.59
293.15 K, 55000 kPa	819.01 ± 0.62
293.15 K, 60000 kPa	821.67 ± 0.65
293.15 K, 65000 kPa	824.26 ± 0.68
298.15 K, 100 kPa	778.94 ± 0.3
298.15 K, 5000 kPa	783.12 ± 0.32
298.15 K, 10000 kPa	787.02 ± 0.35
298.15 K, 15000 kPa	790.73 ± 0.38
298.15 K, 20000 kPa	794.27 ± 0.41
298.15 K, 25000 kPa	797.69 ± 0.44
298.15 K, 30000 kPa	800.97 ± 0.47
298.15 K, 35000 kPa	804.13 ± 0.5
298.15 K, 40000 kPa	807.2 ± 0.53
298.15 K, 45000 kPa	810.16 ± 0.57
298.15 K, 50000 kPa	813.04 ± 0.6
298.15 K, 55000 kPa	815.82 ± 0.63
298.15 K, 60000 kPa	818.54 ± 0.66
298.15 K, 65000 kPa	821.19 ± 0.68
303.15 K, 100 kPa	774.9 ± 0.3
303.15 K, 5000 kPa	779.22 ± 0.32
303.15 K, 10000 kPa	783.2 ± 0.35
303.15 K, 15000 kPa	787 ± 0.38
303.15 K, 20000 kPa	790.65 ± 0.41
303.15 K, 25000 kPa	794.13 ± 0.44
303.15 K, 30000 kPa	797.48 ± 0.47
303.15 K, 35000 kPa	800.72 ± 0.51
303.15 K, 40000 kPa	803.84 ± 0.54
303.15 K, 45000 kPa	806.86 ± 0.57
303.15 K, 50000 kPa	809.78 ± 0.6
303.15 K, 55000 kPa	812.62 ± 0.63
303.15 K, 60000 kPa	815.39 ± 0.66
303.15 K, 65000 kPa	818.05 ± 0.69
308.15 K, 100 kPa	770.87 ± 0.3
308.15 K, 5000 kPa	775.29 ± 0.33
308.15 K, 10000 kPa	779.38 ± 0.36
308.15 K, 15000 kPa	783.28 ± 0.39
308.15 K, 20000 kPa	787 ± 0.42
308.15 K, 25000 kPa	790.57 ± 0.45
308.15 K, 30000 kPa	793.99 ± 0.48
308.15 K, 35000 kPa	797.3 ± 0.51
308.15 K, 40000 kPa	800.48 ± 0.54
308.15 K, 45000 kPa	803.56 ± 0.58
308.15 K, 50000 kPa	806.55 ± 0.61
308.15 K, 55000 kPa	809.43 ± 0.64
308.15 K, 60000 kPa	812.24 ± 0.67
308.15 K, 65000 kPa	814.95 ± 0.7
313.15 K, 100 kPa	766.82 ± 0.3
313.15 K, 5000 kPa	771.35 ± 0.33
313.15 K, 10000 kPa	775.57 ± 0.36
313.15 K, 15000 kPa	779.56 ± 0.39
313.15 K, 20000 kPa	783.37 ± 0.42
313.15 K, 25000 kPa	787.03 ± 0.45
313.15 K, 30000 kPa	790.53 ± 0.48
313.15 K, 35000 kPa	793.9 ± 0.51
313.15 K, 40000 kPa	797.15 ± 0.55
313.15 K, 45000 kPa	800.28 ± 0.58
313.15 K, 50000 kPa	803.33 ± 0.62
313.15 K, 55000 kPa	806.26 ± 0.65
313.15 K, 60000 kPa	809.11 ± 0.68
313.15 K, 65000 kPa	811.88 ± 0.71
318.15 K, 100 kPa	762.76 ± 0.3
318.15 K, 5000 kPa	767.42 ± 0.33
318.15 K, 10000 kPa	771.74 ± 0.36
318.15 K, 15000 kPa	775.84 ± 0.39
318.15 K, 20000 kPa	779.77 ± 0.42
318.15 K, 25000 kPa	783.5 ± 0.45
318.15 K, 30000 kPa	787.08 ± 0.48
318.15 K, 35000 kPa	790.52 ± 0.52
318.15 K, 40000 kPa	793.82 ± 0.55
318.15 K, 45000 kPa	797.02 ± 0.59
318.15 K, 50000 kPa	800.1 ± 0.62
318.15 K, 55000 kPa	803.09 ± 0.65
318.15 K, 60000 kPa	806 ± 0.69
318.15 K, 65000 kPa	808.83 ± 0.72
323.15 K, 100 kPa	758.69 ± 0.3
323.15 K, 5000 kPa	763.48 ± 0.33
323.15 K, 10000 kPa	767.94 ± 0.36
323.15 K, 15000 kPa	772.13 ± 0.39
323.15 K, 20000 kPa	776.12 ± 0.42
323.15 K, 25000 kPa	779.95 ± 0.46
323.15 K, 30000 kPa	783.62 ± 0.49
323.15 K, 35000 kPa	787.13 ± 0.52
323.15 K, 40000 kPa	790.51 ± 0.56
323.15 K, 45000 kPa	793.75 ± 0.6
323.15 K, 50000 kPa	796.9 ± 0.63
323.15 K, 55000 kPa	799.95 ± 0.66
323.15 K, 60000 kPa	802.89 ± 0.69
323.15 K, 65000 kPa	805.77 ± 0.72
328.15 K, 100 kPa	754.6 ± 0.3
328.15 K, 5000 kPa	759.51 ± 0.33
328.15 K, 10000 kPa	764.08 ± 0.36
328.15 K, 15000 kPa	768.39 ± 0.39
328.15 K, 20000 kPa	772.51 ± 0.43
328.15 K, 25000 kPa	776.42 ± 0.46
328.15 K, 30000 kPa	780.18 ± 0.49
328.15 K, 35000 kPa	783.75 ± 0.53
328.15 K, 40000 kPa	787.17 ± 0.57
328.15 K, 45000 kPa	790.5 ± 0.6
328.15 K, 50000 kPa	793.7 ± 0.64
328.15 K, 55000 kPa	796.82 ± 0.67
328.15 K, 60000 kPa	799.82 ± 0.7
328.15 K, 65000 kPa	802.72 ± 0.73
333.15 K, 100 kPa	750.51 ± 0.3
333.15 K, 5000 kPa	755.54 ± 0.33
333.15 K, 10000 kPa	760.26 ± 0.36
333.15 K, 15000 kPa	764.69 ± 0.4
333.15 K, 20000 kPa	768.87 ± 0.43
333.15 K, 25000 kPa	772.87 ± 0.46
333.15 K, 30000 kPa	776.68 ± 0.5
333.15 K, 35000 kPa	780.35 ± 0.53
333.15 K, 40000 kPa	783.87 ± 0.57
333.15 K, 45000 kPa	787.29 ± 0.61
333.15 K, 50000 kPa	790.54 ± 0.64
333.15 K, 55000 kPa	793.66 ± 0.68
333.15 K, 60000 kPa	796.72 ± 0.71
333.15 K, 65000 kPa	799.67 ± 0.74
